Structures can show the parent of a compound that is named as a salt. Where two headings read alike, the source gives them in different places.
What was measured:
[1] = system: epithelial carcinoma A431 cell line; assay: MTT Cell Proliferation Assay, A431 cells; format: cell-based; settings: for MTT Assay IC50(A431/MDBK): ratio in parentheses: ratio MDBK IC50 / A431 IC50 (selectivity)
How it was run: (§1)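 Each concentration ran in quadruplicate across duplicate plates, with compounds serially diluted in DMSO and delivered at 0.5% DMSO in 0.5% FBS medium for 3 days.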

MDBK line = assay: MTT Cell Proliferation Assay, MDBK cells; format: cell-based, bovine
How it was run: as §1

EGFR = molecular target: T1, EGFR (Homo sapiens, UniProt P00533); assay: EGFR in-cell Western (ICW) screening protocol (EGFR inhibition assay); format: cell-based; design: ICW 1 / ICW 2 / ICW Avg: unit not given here; settings: for ICW Avg / ICW 1 / ICW 2: ICW assay; for ICW Avg: average of runs 1 and 2; for ICW 1: run 1; for ICW 2: run 2; for ICW assay: Table 10
T1 construct: host or cells: A431
How it was run: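 In-cell Western read-out: fixed A431 cells were co-stained for total EGFR and phospho-EGFR (Tyr1173; some runs Tyr1045). Before fixation, cells were serum-starved for 2 h, exposed to compound for 4 h, then given EGF for 10 min, usually at 10 ng/ml final (6.6 or 12.5 ng/ml in some runs).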

[2] = Homo sapiens, A-431, A431 cells, first value of cell, read-out: MTT Assay IC50(A431/MDBK): A431
[3] = Bos taurus, MDBK, MDBK cells, second value of cell, read-out: MTT Assay IC50(A431/MDBK): MDBK
[4] = Homo sapiens, A-431, 72 h, Table 10, first of x/y(ratio): A431, three day treatment, unit not printed (doses in μM), read-out: MTT assay (first value)
[5] = Bos taurus, MDBK, 72 h, Table 10, second of x/y(ratio): MDBK, three day treatment, unit not printed (doses in μM), read-out: MTT assay (second value)
[6] = % Inhibition of EGF dependent EGFR phosphorylation in A431 cells, compound 125 μM in assay

T1 sequence (P00533 25-1210): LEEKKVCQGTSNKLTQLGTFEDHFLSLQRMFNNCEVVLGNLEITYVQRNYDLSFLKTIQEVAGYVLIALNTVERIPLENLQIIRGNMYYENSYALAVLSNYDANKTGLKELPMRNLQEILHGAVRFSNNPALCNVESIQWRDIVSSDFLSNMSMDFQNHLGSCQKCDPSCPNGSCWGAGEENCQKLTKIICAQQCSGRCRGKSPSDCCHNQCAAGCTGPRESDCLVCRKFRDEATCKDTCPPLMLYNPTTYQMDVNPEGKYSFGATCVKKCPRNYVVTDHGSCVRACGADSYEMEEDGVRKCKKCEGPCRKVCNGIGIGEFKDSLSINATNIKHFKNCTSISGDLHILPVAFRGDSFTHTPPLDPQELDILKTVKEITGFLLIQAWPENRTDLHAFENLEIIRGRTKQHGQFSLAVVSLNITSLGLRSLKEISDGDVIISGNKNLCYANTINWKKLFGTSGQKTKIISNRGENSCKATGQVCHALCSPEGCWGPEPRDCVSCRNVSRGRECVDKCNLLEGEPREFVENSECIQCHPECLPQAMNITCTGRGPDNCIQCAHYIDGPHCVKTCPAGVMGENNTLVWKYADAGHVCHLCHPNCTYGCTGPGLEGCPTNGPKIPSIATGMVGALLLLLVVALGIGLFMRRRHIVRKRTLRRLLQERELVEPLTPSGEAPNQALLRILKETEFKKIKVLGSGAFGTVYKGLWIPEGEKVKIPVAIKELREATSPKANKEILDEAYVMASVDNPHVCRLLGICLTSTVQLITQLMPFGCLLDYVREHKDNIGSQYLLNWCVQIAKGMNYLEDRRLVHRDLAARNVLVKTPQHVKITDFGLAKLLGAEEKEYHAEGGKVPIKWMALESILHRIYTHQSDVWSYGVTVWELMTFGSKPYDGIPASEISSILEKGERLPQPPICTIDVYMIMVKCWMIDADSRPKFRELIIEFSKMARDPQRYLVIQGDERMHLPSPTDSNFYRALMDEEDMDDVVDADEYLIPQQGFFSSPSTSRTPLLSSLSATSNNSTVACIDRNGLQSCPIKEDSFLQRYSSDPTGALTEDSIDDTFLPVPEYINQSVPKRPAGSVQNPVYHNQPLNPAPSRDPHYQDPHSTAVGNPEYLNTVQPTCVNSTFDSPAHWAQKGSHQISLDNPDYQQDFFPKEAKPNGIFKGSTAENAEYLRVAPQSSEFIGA

IC50 [1, 2] [µM]	MTT Assay IC50(A431/MDBK): ratio in parentheses [1]	ICW Avg (EGFR)	ICW 1 (EGFR)	ICW 2 (EGFR)	IC50 [1, 4] [µM]	ICW assay (EGFR; [6])	Compound	IC50 (MDBK line; [3]) [µM]	IC50 (MDBK line; [5]) [µM]	further results
–	–	–	–	–	4.05	79.4624	CC(C)c1ccc(NC(=S)Nc2ccc(S(=O)(=O)Nc3ccc(Cl)cc3)cc2)cc1 [AD4-12503]	–	5.43	–
–	–	–	–	–	14.8	34.1311	COc1ccc(NC(=S)Nc2ccc(S(=O)(=O)Nc3ccc(Cl)cc3)cc2)cc1OC [AD4-12525]	–	12.2	–
–	–	–	–	–	48.2	26.8206	CC(=O)c1cccc(NC(=S)Nc2ccc(NS(=O)(=O)c3ccc(C)cc3)cc2)c1 [AD4-10693]	–	35.9	–
–	–	–	–	–	5.69	53.245	Cc1ccc(NC(=S)Nc2ccc(S(=O)(=O)Nc3ccc(Cl)c(Cl)c3)cc2)cc1 [AD4-12438]	–	5.9	–
15.6	–	37.95	50.14	25.76	–	–	CCOc1ccc2nc(Nc3nc(=O)c(Cc4ccc(C)cc4)c(C)[nH]3)nc(C)c2c1 [compound 11442]	118	–	–
–	–	–	–	–	4.04	77.7928	CCC(C)c1ccc(NC(=S)Nc2ccc(S(=O)(=O)Nc3ccc(OC)cc3)cc2)cc1 (centres unmarked) [AD4-12468]	–	5.41	–
–	–	–	–	–	5.64	112.965	O=S(=O)(Nc1ccc(Cl)cc1)c1ccc(NC(=S)Nc2cccc(Cl)c2)cc1 [AD4-12494]	–	5.71	–

More lines, now with the values behind:

Compound	IC50 [1, 2] [µM]	MTT Assay IC50(A431/MDBK): ratio in parentheses [1]	ICW Avg (EGFR)	ICW 1 (EGFR)	ICW 2 (EGFR)	IC50 [1, 4] [µM]	ICW assay (EGFR; [6])	IC50 (MDBK line; [3]) [µM]	IC50 (MDBK line; [5]) [µM]	further results
COc1ccc(/C=C/C(=O)NC(=S)Nc2ccc(S(=O)(=O)Nc3nc(C)cc(C)n3)cc2)cc1 [AD4-11646]	–	–	–	–	–	–	–	–	–	IC50 ([1]; Homo sapiens, A-431, first value of 'a/b (c)', taken as A431 cells, read-out: MTT Screen, first value of cell): 19.4 µM; IC50 (MDBK line; Bos taurus, MDBK, second value of 'a/b (c)', taken as MDBK cells, read-out: MTT Screen, second value of cell): 21.1 µM; ICW Screen (ICW Inhibition) (EGFR): 37.949
Cc1ccc(-c2cc(=O)[nH]c(Nc3nc(C)c4ccc(C)cc4n3)n2)cc1 [12604 + TFA]	19.3	1.55	50.98	55.87	46.08	–	–	30	–	–
COc1cccc2c(C)nc(Nc3nc(C)c(C)c(=O)[nH]3)nc12 [12723 + TFA]	–	1.07	66.62	67.34	65.91	–	–	–	–	IC50 ([1]; A431 cells, first value of cell, read-out: MTT Assay IC50(A431/MDBK): A431): 9.33 µM; IC50 (MDBK line; MDBK cells, second value of cell, read-out: MTT Assay IC50(A431/MDBK): MDBK): 9.99 µM
CCc1ccc2nc(Nc3nc(C)c(CCC(C)C)c(=O)[nH]3)nc(C)c2c1 [compound 11462]	14.6	3.19	77.32	77.14	77.49	–	–	46.6	–	–
CCc1ccc2nc(Nc3ncc4c(n3)CC(c3cccc(Cl)c3)CC4=O)nc(C)c2c1 (centres unmarked) [11680 + TFA]	21.9	0.80	27.24	32.59	21.89	–	–	17.4	–	–
CCCCc1c(C)nc(Nc2nc(C)c3cc(C)ccc3n2)[nH]c1=O [compound 11498]	5.39	–	49.32	42.15	56.48	–	–	8.77	–	–
CCCc1c(-c2ccccc2)nc(Nc2nc(C)c3ccccc3n2)[nH]c1=O [compound 12609]	11.2	2.10	41.04	42.02	40.07	–	–	23.5	–	–
Cc1ccc2nc(Nc3nc4c(c(-c5ccccc5)n3)CCCC4)nc(C)c2c1 [compound 12227]	16.4	1.04	27.27	31.47	23.08	–	–	17.1	–	–
O=c1cc(CN2CCN(C(c3ccccc3)c3ccccc3)CC2)c2ccc(O)c(O)c2o1 [AD4-10633]	–	–	–	–	–	–	–	–	–	IC50 ([1]; Homo sapiens, A-431, Table 11, first of x/y(ratio): A431, unit not printed (doses in μM), read-out: MTT Screen (first value)): 5.2 µM; MTT Follow-up (first value) ([1]; Table 11, first of x/y(ratio): A431, unit not given): Not Convergent; MTT Screen (second value) (MDBK line; Table 11, second of x/y(ratio): MDBK, unit not printed (doses in μM)): non- convergent; ICW Screen (EGFR; Table 11, % Inhibition of EGF dependent EGFR phosphorylation in A431 cells, compound 125 μM in assay): 46.398
COC(=O)Cc1cc(=O)nc(Nc2nc(C)c3ccccc3n2)[nH]1 [compound 11609]	36	0.68	27.23	28.83	25.63	–	–	24.3	–	–
CC(C)(C)C(=O)NC(=S)Nc1ccc(S(=O)(=O)NCCc2ccccc2)cc1 [AD4-10313]	–	–	–	–	–	–	–	–	–	IC50 ([1]; first value of 'a/b (c)', taken as A431 cells, read-out: MTT Screen, first value of cell): 20.9 µM; IC50 (MDBK line; second value of 'a/b (c)', taken as MDBK cells, read-out: MTT Screen, second value of cell): 17.6 µM; ICW Screen (ICW Inhibition) (EGFR): 30.774

Reference: patent US20140179681A1, “METHODS AND COMPOSITIONS OF TARGETED DRUG DEVELOPMENT” (priority 2010, published 2014)
